Patent US10526332B2, “Imidazo-pyrimidone compounds, and preparation method and application thereof” (Nanjing Gator Meditech Company, Ltd., priority 2015, dated 2020)

Columns and labels:
[1] = system: HCT116; experiment: MTS cell proliferation test, HCT116; details: Homo sapiens, HCT-116, 72 h, read-out: HCT116 IC50 (Mean ± SD);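 further: absorbance at 490 nm after MTS/PMS addition, survival relative to untreated cells (100%) after blank subtraction, IC50 from the concentration–survival curve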
Procedure: (§1) The disclosed compounds and their pharmaceutically accepted salts are assayed for their anti-cancer activities by the following method. • MTS Cell Proliferation Test 1. Materials 1.1. […] Cell Lines
(§2) Two cell lines were used, both HCT116 and MDA-MB-231 were purchased from USATCC.
(§3) MTS reagent powder was purchased from Promega. Cat #G1111; PMS from Sigma, Cat #P8625; cell culture medium RPMI-1640, Cat #10040562R; DMEM, Cat #0013CVR; 100× sodium pyruvate solution Cat #136007; 100× Penicillin Streptomycin Solution, Cat ⊇15140122; 100× Penicillin Streptomycin Solution, Cat #15140122; 0.25% Trypsin (Parenzyme), Cat #25200-072; and fetal bovine serum, Cat #16000-044 were all purchased from Life Technologies.
(§4) • Thermo incubator (Format 371); • Heat force Biosafety Cabinet (HF sage 1500); • BioTek Microplate Reader (Synergy 2). 2. […] 2.3 Procedure of MTS Methods:
(§5) Cells at logarithmic phase were harvested, then digested with 0.25% trypsin, and re-suspense in complete growth medium. 150 uL/well of HCT-116 and MDA-MB-231 were dispensed into 96 well culture plates with 2.5×10^3 cell/well. The plates were pre-incubated in a humidified CO2 incubator at 37° C., 5% CO2) for 24 hours. 50 uL of various concentration of test compounds and reference compound were added. A negative control (only cells and culture medium without compound) and blank control (only culture medium without cells) were set at the same time. The plates were incubated for 72 hr in the incubator. The MTS/PMS solution was prepared and added into 96 well plates according to the test instruction by Promega Corporation. The plates were incubated again for some time, then the absorbance at 490 nm were measured using Biotek Instruments, Inc microplate reader and the cell survival rates calculated. Cell Survival Rate(%)=(At−Ab)/(Ac−Ab)×100% where, • At=Absorbance value of test compound • Ab=Absorbance value of blank • Ac=Absorbance value of control 3. Results

[2] = system: MDA-MB-231; experiment: MTS cell proliferation test, MDA-MB-231; details: Homo sapiens, MDA-MB-231, 72 h, read-out: MDA231 IC50 (Mean ± SD);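 further: cells settled 24 h before compound addition, MTS absorbance at 490 nm, survival as percent of untreated cells after blank subtraction, IC50 fitted from survival versus concentration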
Procedure: as §1, §2, §3, §4, §5

Compound | IC50 [1] [µM] | IC50 [2] [µM]
O=C1C2=C(CCN(Cc3ccccc3Br)C2)N2CCN=C2N1Cc1ccccc1Br [Compound I-19, 4,7-bis(2-bromobenzyl)-1,2,6,7,8,9-hexahydroimidazo[1,2-a]pyrido[3,4-e]pyrimidin-5(4H)-one] | 2.22 ± 0.007 | 3.67 ± 0.036
O=C1C2=C(CCN(Cc3ccccc3F)C2)N2CCN=C2N1Cc1ccccc1F [Compound I-11, 4,7-bis(2-fluorobenzyl)-1,2,6,7,8,9-hexahydroimidazo[1,2-a]pyrido[3,4-e]pyrimidin-5(4H)-one] | 1.99 ± 0.041 | 2.18 ± 0.02
O=C1C2=C(CCN(Cc3ccccc3Cl)C2)N2CCN=C2N1Cc1ccccc1F [Compound I-23, 7-(2-chlorobenzyl)-4-(2-fluorobenzyl)-1,2,6,7,8,9-hexahydroimidazo[1,2-a]pyrido[3,4-e]pyrimidin-5(4H)-one] | 2 ± 0.026 | 2.14 ± 0.025
Cc1ccccc1CN1C(=O)C2=C(CCN(Cc3ccccc3Br)C2)N2CCN=C12 [Compound I-20, 7-(2-bromobenzyl)-4-(2-methylbenzyl)-1,2,6,7,8,9-hexahydroimidazo[1,2-a]pyrido[3,4-e]pyrimidin-5(4H)-one] | 27.5 ± 3.35 | 27.1 ± 3.24
O=C1C2=C(CCN(Cc3ccccc3)C2)N2CCN=C2N1Cc1ccc(Cl)cc1Cl [Compound I-41, 7-benzyl-4-(2,4-dichlorobenzyl)-1,2,6,7,8,9-hexahydroimidazo[1,2-a]pyrido[3,4-e]pyrimidin-5(4H)-one] | 1.73 ± 0.25 | 2.01 ± 0.01
O=C1C2=C(CCN(Cc3cccc(F)c3)C2)N2CCN=C2N1Cc1ccccc1Br [Compound I-52, 4-(2-bromobenzyl)-7-(3-fluorobenzyl)-1,2,6,7,8,9-hexahydroimidazo[1,2-a]pyrido[3,4-e]pyrimidin-5(4H)-one] | 1.18 ± 0.155 | 2.07 ± 0.115
Cc1ccccc1CN1C(=O)C2=C(CCN(Cc3ccc(N4CCN(C)CC4)cc3)C2)N2CCN=C12 [Compound I-10, 4-(2-methylbenzyl)-7-(4-(4-methylpiperazin-1-yl)benzyl)-1,2,6,7,8,9-hexahydroimidazo[1,2-a]pyrido[3,4-e]pyrimidin-5(4H)-one] | 2.09 ± 0.016 | 2.19 ± 0.027
Cc1cccc(CN2CCC3=C(C2)C(=O)N(Cc2ccccc2F)C2=NCCN23)c1 [Compound I-30, 4-(2-fluorobenzyl)-7-(3-methylbenzyl)-1,2,6,7,8,9-hexahydroimidazo[1,2-a]pyrido[3,4-e]pyrimidin-5(4H)-one] | 2.07 ± 0.062 | 2.13 ± 0.005
O=C1C2=C(CCN(Cc3ccccc3)C2)N2CCN=C2N1Cc1ccc(Cl)cc1C(F)(F)F [Compound I-43, 7-benzyl-4-(4-chloro-2-(trifluoromethyl)benzyl)-1,2,6,7,8,9-hexahydroimidazo[1,2-a]pyrido[3,4-e]pyrimidin-5(4H)-one] | 4.29 ± 0.21 | 2.85 ± 0.77
O=C1C2=C(CCN(Cc3cccc(F)c3)C2)N2CCN=C2N1Cc1ccccc1F [Compound I-49, 4-(2-fluorobenzyl)-7-(3-fluorobenzyl)-1,2,6,7,8,9-hexahydroimidazo[1,2-a]pyrido[3,4-e]pyrimidin-5(4H)-one] | 0.58 ± 0.043 | 0.93 ± 0.098
O=C1C2=C(CCN(Cc3cccc(F)c3)C2)N2CCN=C2N1Cc1ccccc1C(F)(F)F [Compound I-50, 7-(3-fluorobenzyl)-4-(2-(trifluoromethyl)benzyl)-1,2,6,7,8,9-hexahydroimidazo[1,2-a]pyrido[3,4-e]pyrimidin-5(4H)-one] | 0.77 ± 0.014 | 1.77 ± 0.429
O=C1C2=C(CCN(Cc3ccccc3Cl)C2)N2CCN=C2N1Cc1ccccc1Br [Compound I-26, 4-(2-bromobenzyl)-7-(2-chlorobenzyl)-1,2,6,7,8,9-hexahydroimidazo[1,2-a]pyrido[3,4-e]pyrimidin-5(4H)-one] | 1.5 ± 0.394 | 2.08 ± 0.067
O=C1C2=C(CCN(Cc3ccccc3Cl)C2)N2CCN=C2N1Cc1ccccc1C(F)(F)F [Compound I-24, 7-(2-chlorobenzyl)-4-(2-(trifluoromethyl)benzyl)-1,2,6,7,8,9-hexahydroimidazo[1,2-a]pyrido[3,4-e]pyrimidin-5(4H)-one] | 2.09 ± 0.041 | 1.99 ± 0.039
Cc1ccccc1CN1C(=O)C2=C(CCN(Cc3ccc(C(F)(F)F)cc3)C2)N2CCN=C12 [Compound I-6, 4-(2-methylbenzyl)-7-(4-(trifluoromethyl)benzyl)-1,2,6,7,8,9-hexahydroimidazo[1,2-a]pyrido[3,4-e]pyrimidin-5(4H)-one] | 4.16 ± 1.51 | 4.45 ± 0.356
O=C1C2=C(CCN(Cc3ccccc3)C2)N2CCN=C2N1Cc1cccc(C(F)(F)F)c1 [Compound I-38, 7-benzyl-4-(3-(trifluoromethyl)benzyl)-1,2,6,7,8,9-hexahydroimidazo[1,2-a]pyrido[3,4-e]pyrimidin-5(4H)-one] | 0.24 ± 0.02 | 0.4 ± 0.03
O=C1C2=C(CCN(Cc3cccc(F)c3)C2)N2CCN=C2N1Cc1ccccc1Cl [Compound I-51, 4-(2-chlorobenzyl)-7-(3-fluorobenzyl)-1,2,6,7,8,9-hexahydroimidazo[1,2-a]pyrido[3,4-e]pyrimidin-5(4H)-one] | 0.7 ± 0.001 | 0.73 ± 0.004

Compound | IC50 [1] [µM] | IC50 [2] [µM]
O=C1C2=C(CCN(Cc3ccccc3F)C2)N2CCN=C2N1Cc1ccccc1Br [Compound I-14, 4-(2-bromobenzyl)-7-(2-fluorobenzyl)-1,2,6,7,8,9-hexahydroimidazo[1,2-a]pyrido[3,4-e]pyrimidin-5(4H)-one] | 1.45 ± 0.155 | 2.08 ± 0.024
O=C1C2=C(CCN(Cc3ccccc3Br)C2)N2CCN=C2N1Cc1ccccc1Cl [Compound I-18, 7-(2-bromobenzyl)-4-(2-chlorobenzyl)-1,2,6,7,8,9-hexahydroimidazo[1,2-a]pyrido[3,4-e]pyrimidin-5(4H)-one] | 2.15 ± 0.022 | –
O=C1C2=C(CCN(Cc3ccccc3)C2)N2CCN=C2N1Cc1ccc(Cl)c(Cl)c1 [Compound I-40, 7-benzyl-4-(3,4-dichlorobenzyl)-1,2,6,7,8,9-hexahydroimidazo[1,2-a]pyrido[3,4-e]pyrimidin-5(4H)-one] | 0.08 | 0.12 ± 0.01
O=C1C2=C(CCN(Cc3ccccc3F)C2)N2CCN=C2N1Cc1ccccc1Cl [Compound I-13, 4-(2-chlorobenzyl)-7-(2-fluorobenzyl)-1,2,6,7,8,9-hexahydroimidazo[1,2-a]pyrido[3,4-e]pyrimidin-5(4H)-one] | 1.77 ± 0.072 | 1.94 ± 0.277
O=C1C2=C(CCN(Cc3ccccc3)C2)N2CCN=C2N1Cc1ccccc1C(F)(F)F [Compound I-4, 7-benzyl-4-(2-(trifluoromethyl)benzyl)-1,2,6,7,8,9-hexahydroimidazo[1,2-a]pyrido[3,4-e]pyrimidin-5(4H)-one] | 1.36 ± 0.023 | 1.17 ± 0.178
Cc1cccc(CN2CCC3=C(C2)C(=O)N(Cc2ccccc2Cl)C2=NCCN23)c1 [Compound I-32, 4-(2-chlorobenzyl)-7-(3-methylbenzyl)-1,2,6,7,8,9-hexahydroimidazo[1,2-a]pyrido[3,4-e]pyrimidin-5(4H)-one] | 0.77 ± 0.048 | 0.74 ± 0.001
Cc1cccc(CN2CCC3=C(C2)C(=O)N(Cc2ccccc2C)C2=NCCN23)c1 [Compound I-34, 4-(2-methylbenzyl)-7-(3-methylbenzyl)-1,2,6,7,8,9-hexahydroimidazo[1,2-a]pyrido[3,4-e]pyrimidin-5(4H)-one] | 0.73 ± 0.001 | 0.73 ± 0.002
O=C1C2=C(CCN(Cc3cccc(Cl)c3)C2)N2CCN=C2N1Cc1ccccc1C(F)(F)F [Compound I-35, 7-(3-chlorobenzyl)-4-(2-(trifluoromethyl)benzyl)-1,2,6,7,8,9-hexahydroimidazo[1,2-a]pyrido[3,4-e]pyrimidin-5(4H)-one] | 6.21 ± 0.077 | 4.21 ± 0.634
O=C1C2=C(CCN(Cc3cccc(Cl)c3)C2)N2CCN=C2N1Cc1ccccc1Br [Compound I-37, 4-(2-bromobenzyl)-7-(3-chlorobenzyl)-1,2,6,7,8,9-hexahydroimidazo[1,2-a]pyrido[3,4-e]pyrimidin-5(4H)-one] | 2.31 ± 0.033 | 2.33 ± 0.095
O=C1C2=C(CN(Cc3ccccc3)C2)N2CCN=C2N1Cc1ccccc1Br [Compound I-55, 2-Benzyl-5-(2-bromobenzyl)-2,3,7,8-tetrahydro-1H-imidazo[1,2-a]pyrrolo[3,4-e]pyrimidin-4(5H)-one] | 2.14 ± 0.001 | 2.19 ± 0.039
O=C1C2=C(CCN(Cc3ccccc3)C2)N2CCN=C2N1Cc1ccc(Cl)cc1 [Compound I-3, 7-benzyl-4-(4-chlorobenzyl)-1,2,6,7,8,9-hexahydroimidazo[1,2-a]pyrido[3,4-e]pyrimidin-5(4H)-one] | 0.06 ± 0.006 | 0.07 ± 0.003
O=C1C2=C(CN(Cc3ccccc3)C2)N2CCN=C2N1Cc1ccc(Cl)c(C(F)(F)F)c1 [Compound I-57, 2-benzyl-5-(4-chloro-3-(trifluoromethyl)benzyl)-2,3,7,8-tetrahydro-1H-imidazo[1,2-a]pyrrolo[3,4-e]pyrimidin-4(5H)-one] | 2.08 ± 0.01 | 2.1 ± 0.07
O=C1C2=C(CCN(Cc3cccc(Br)c3)C2)N2CCN=C2N1Cc1ccccc1C(F)(F)F [Compound I-54, 7-(3-bromobenzyl)-4-(2-(trifluoromethyl)benzyl)-1,2,6,7,8,9-hexahydroimidazo[1,2-a]pyrido[3,4-e]pyrimidin-5(4H)-one] | 21.41 ± 0.034 | 24.8 ± 2.58
O=C1C2=C(CCN(Cc3cccc(Br)c3)C2)N2CCN=C2N1Cc1ccccc1Cl [Compound I-28, 7-(3-bromobenzyl)-4-(2-chlorobenzyl)-1,2,6,7,8,9-hexahydroimidazo[1,2-a]pyrido[3,4-e]pyrimidin-5(4H)-one] | 2.2 ± 0.017 | 2.22 ± 0.029
O=C1C2=C(CCN(Cc3ccccc3Cl)C2)N2CCN=C2N1Cc1ccccc1Cl [Compound I-25, 4,7-bis(2-chlorobenzyl)-1,2,6,7,8,9-hexahydroimidazo[1,2-a]pyrido[3,4-e]pyrimidin-5(4H)-one] | 1.95 ± 0.064 | 1.31 ± 0.154
Cc1cccc(CN2CCC3=C(C2)C(=O)N(Cc2ccccc2Br)C2=NCCN23)c1 [Compound I-33, 4-(2-bromobenzyl)-7-(3-methylbenzyl)-1,2,6,7,8,9-hexahydroimidazo[1,2-a]pyrido[3,4-e]pyrimidin-5(4H)-one] | 0.72 ± 0.001 | 0.86 ± 0.136
